Assays:
MAPKAPK5 = molecular target: T1, MAPKAPK5 (Homo sapiens, UniProt Q8IW41); assay: MAPKAP-K5 assay (FlashPlate kinase assay)
T1 sequence (Q8IW41 1-471 isoform Q8IW41-2): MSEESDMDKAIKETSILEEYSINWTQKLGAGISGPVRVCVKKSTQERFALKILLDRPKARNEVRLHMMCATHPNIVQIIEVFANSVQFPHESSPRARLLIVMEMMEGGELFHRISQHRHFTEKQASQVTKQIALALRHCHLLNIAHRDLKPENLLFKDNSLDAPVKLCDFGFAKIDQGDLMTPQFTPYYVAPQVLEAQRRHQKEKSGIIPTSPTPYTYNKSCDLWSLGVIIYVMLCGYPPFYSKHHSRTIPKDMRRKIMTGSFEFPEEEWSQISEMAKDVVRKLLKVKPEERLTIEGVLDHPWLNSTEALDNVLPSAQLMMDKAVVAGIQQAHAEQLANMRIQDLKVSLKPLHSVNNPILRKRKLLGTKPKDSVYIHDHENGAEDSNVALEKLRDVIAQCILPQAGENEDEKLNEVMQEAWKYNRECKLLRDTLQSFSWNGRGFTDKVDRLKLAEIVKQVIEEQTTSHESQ

[1] = system: MMP1 expression by activated primary synovial fibroblasts; assay: 'MMP assay': MMP1 expression by complex trigger activated synovial fibroblasts (MMP1 ELISA); type: cell-based; details: Homo sapiens, Fibroblast; for EC50: RASFs, complex trigger, 48 hrs, MMP1 ELISA

IC50 (MAPKAPK5) [nM] | Structure (SMILES) | EC50 ([1]; Table 3) [nM] | EC50 ([1]; Table 4) [nM] | IC50 ([1]; complex trigger activated SFs, 48 hrs after treatment, FIG. 3, read-out: IC50 of reduction of MMP1 expression by SFs) [nM]
1 to 100 | COCCN1CCC(c2ccc(Nc3ncc(-c4ccc5c(c4)CNC5=O)n4ncnc34)cc2)CC1 [Compound 189] |  |  | 
> 1000 | O=C1CN(c2ccc(Nc3ncc(-c4cn[nH]c4)n4ncnc34)cc2)CCN1 [Compound 177] | > 1000 |  | 
501 to 1000 | CC1(C)OCC(CNC(=O)c2ccc(Nc3ncc(-c4cn[nH]c4)n4ncnc34)cc2)O1 (stereo not shown) [Compound 161] |  | > 1000 | 
501 to 1000 | O=C(c1ccc(Nc2ncc(-c3cn[nH]c3)n3ncnc23)cc1)N1CCN(c2ccccc2)CC1 [Compound 145] |  | > 1000 | 
101 to 500 | O=C(N[C@H]1CCN(Cc2ccccc2)C1)c1ccc(Nc2ncc(-c3ccc4c(c3)CNC4=O)n3ncnc23)cc1 [Compound 196] |  | > 1000 | 
501 to 1000 | O=C(c1ccc(Nc2ncc(-c3cn[nH]c3)n3ncnc23)cc1)N1CCN(c2ccccn2)CC1 [Compound 148] |  | > 1000 | 
> 1000 | O=C(Nc1ccc(N2CCOCC2)nc1)c1ccc(Nc2ncc(-c3ccc4c(c3)CNC4=O)n3ncnc23)cc1 [Compound 193] |  | > 1000 | 
> 1000 | O=C(NCC1CC1)c1ccc(Nc2ncc(-c3cn[nH]c3)n3ncnc23)cc1 [Compound 142] |  | > 1000 | 
> 1000 | CC(C)CNC(=O)c1ccc(Nc2ncc(-c3cn[nH]c3)n3ncnc23)cc1 [Compound 164] |  | > 1000 | 
> 1000 | COc1cc(Nc2ncc(-c3csc(C(N)=O)c3)n3ncnc23)ccc1C(=O)NCc1ccc(C)nc1 [Compound 121] |  | > 1000 | 
501 to 1000 | CC(C)N(CCNC(=O)c1ccc(Nc2ncc(-c3cn[nH]c3)n3ncnc23)cc1)C(C)C [Compound 162] |  | > 1000 | 
501 to 1000 | CNC(=O)C1CCN(C(=O)c2ccc(Nc3ncc(-c4cn[nH]c4)n4ncnc34)cc2)CC1 [Compound 136] |  | > 1000 | 
> 1000 | CC(C)N1CCN(c2ccc(Nc3ncc(-c4ccc5cn[nH]c5c4)n4ncnc34)cc2)CC1 [Compound 106] |  |  | 
> 1000 | CC(C)N1CCN(c2ccc(Nc3ncc(-c4ccc5c(c4)C(=O)NC5)n4ncnc34)cc2)CC1 [Compound 109] | > 1000 |  | 
> 1000 | O=C(N[C@H]1CCN(Cc2ccccc2)C1)c1ccc(Nc2ncc(-c3cn[nH]c3)n3ncnc23)cc1 [Compound 191] |  |  | 
> 1000 | O=C1NCc2cc(-c3cnc(NC4CCNCC4)c4ncnn34)ccc21 [Compound 185] | > 1000 |  | 
1 to 100 | CC(C)N1CCN(c2ccc(Nc3ncc(-c4coc(C(N)=O)c4)n4ncnc34)cc2)CC1 [Compound 88, 4-(8-(4-(4-Isopropylpiperazin-1-yl)phenylamino)-[1,2,4]triazolo[1,5-a]pyrazin-5-yl)furan-2-carboxamide] | 501 to 1000 |  | 
> 1000 | O=C(Nc1cn(Cc2ccccc2)cn1)c1ccc(Nc2ncc(-c3cn[nH]c3)n3ncnc23)cc1 [Compound 198] |  | > 1000 | 
501 to 1000 | O=C(c1ccc(Nc2ncc(-c3cn[nH]c3)n3ncnc23)cc1)N1CCN(Cc2ccc(F)cc2)CC1 [Compound 144] |  |  | 
> 1000 | NC(=O)c1cc(-c2cnc(Nc3ccc(NC(=O)c4ccccc4)nc3)c3ncnn23)cs1 [Compound 133] |  | > 1000 | 
> 1000 | O=C(NCC1CCCCC1)c1cccc(Nc2ncc(-c3cn[nH]c3)n3ncnc23)c1 [Compound 130] |  | > 1000 | 
> 1000 | CC(C)N1CCN(c2ccc(Nc3ncc(-c4ccc5c(c4)C(C)(C)NC5=O)n4ncnc34)cc2)CC1 [Compound 114, 5-{8-[4-(4-Isopropylpiperazin-1-yl)-phenylamino]-[1,2,4]triazolo[1,5-a]pyrazin-5-yl}-3,3-dimethyl-2,3-dihydroisoindol-1-one] | > 1000 |  | 
> 1000 | Nc1nccn1-c1ncc(-c2ccc3c(c2)CNC3=O)n2ncnc12 [Compound 168] | > 1000 |  | 
> 1000 | O=C(c1ccc(Nc2ncc(-c3cn[nH]c3)n3ncnc23)cc1)N1CCC(N2CCCCC2)CC1 [Compound 165] |  | > 1000 | 
> 1000 | Cc1sc(C(N)=O)cc1-c1cnc(Nc2ccc(N3CCN(C(C)C)CC3)nc2)c2ncnn12 [Compound 96] | > 1000 |  | 
> 1000 | O=C(NCc1ccc(O)cc1)c1cccc(Nc2ncc(-c3cn[nH]c3)n3ncnc23)c1 [Compound 131, N-(4-Hydroxybenzyl) 3-[5-(1H-pyrazol-4-yl)-[1,2,4]triazolo[1,5-a]pyrazin-8-ylamino]benzamide] |  | 501 to 1000 | 

IC50 (MAPKAPK5) [nM] | Structure (SMILES) | EC50 ([1]; Table 3) [nM] | EC50 ([1]; Table 4) [nM] | IC50 ([1]; complex trigger activated SFs, 48 hrs after treatment, FIG. 3, read-out: IC50 of reduction of MMP1 expression by SFs) [nM]
> 1000 | CC(C)N1CCC(Nc2ncc(-c3ccc4c(c3)CNC4=O)n3ncnc23)CC1 [Compound 186] |  |  | 
> 1000 | CCN(CCOC)C(=O)c1ccc(Nc2ncc(-c3cn[nH]c3)n3ncnc23)cc1 [Compound 157] |  | > 1000 | 
> 1000 | CN(Cc1ccccc1)C(=O)c1cccc(Nc2ncc(-c3cn[nH]c3)n3ncnc23)c1 [Compound 134, N-Benzyl-N-methyl 3-[5-(1H-pyrazol-4-yl)-[1,2,4]triazolo[1,5-a]pyrazin-8-ylamino]benzamide] |  | 501 to 1000 | 
501 to 1000 | CCN1CCCC1CNC(=O)c1ccc(Nc2ncc(-c3cn[nH]c3)n3ncnc23)cc1 (stereo not shown) [Compound 139] |  | > 1000 | 
501 to 1000 | O=C(c1ccc(Nc2ncc(-c3cn[nH]c3)n3ncnc23)cc1)N1CC=CC1 [Compound 140] |  | > 1000 | 
501 to 1000 | NC(=O)c1cc(-c2cnc(Nc3ccc(NC(=O)Cc4ccccc4)nc3)c3ncnn23)cs1 [Compound 167, 4-[8-(6-Phenylacetylamino-pyridin-3-ylamino)-[1,2,4]triazolo[1,5-a]pyrazin-5-yl]-thiophene-2-carboxylic acid amide] |  | > 1000 | 
501 to 1000 | O=C(NCCc1ccncc1)c1ccc(Nc2ncc(-c3cn[nH]c3)n3ncnc23)cc1 [Compound 137] |  | > 1000 | 
> 1000 | O=C(NCc1cccnc1)c1ccc(Nc2ncc(-c3cc[nH]c(=O)c3)n3ncnc23)cc1 [Compound 119, 4-(5-(2-Oxo-1,2-dihydropyridin-4-yl)-[1,2,4]triazolo[1,5-a]pyrazin-8-ylamino)-N-(pyridin-3-ylmethyl)benzamide] |  | > 1000 | 
501 to 1000 | CC(C)NC(=O)CN1CCN(C(=O)c2ccc(Nc3ncc(-c4cn[nH]c4)n4ncnc34)cc2)CC1 [Compound 155] |  | > 1000 | 
101 to 500 | O=C1NCc2cc(-c3cnc(NCC4CCCCC4)c4ncnn34)ccc21 [Compound 184] | > 1000 |  | 
> 1000 | CC(C)N1CCN(c2ccc(Nc3ncc(-c4cn[nH]c4)n4ncnc34)cn2)CC1 [Compound 43, [6-(4-Isopropylpiperazin-1-yl)pyridin-3-yl]-[5-(1H-pyrazol-4-yl)-[1,2,4]triazolo[1,5-a]pyrazin-8-yl]amine] | > 1000 |  | 
101 to 500 | CC(C)N1CCN(c2ccc(Nc3ncc(-c4ccc5c(c4)CNC5=O)n4ncnc34)cc2)C(=O)C1 [Compound 112, 5-(8-(4-(4-Isopropyl-2-oxopiperazin-1-yl)phenylamino)-[1,2,4]triazolo[1,5-a]pyrazin-5-yl)isoindolin-1-one] | > 1000 |  | 
501 to 1000 | COCCN1CCN(C(=O)c2ccc(Nc3ncc(-c4cn[nH]c4)n4ncnc34)cc2)CC1 [Compound 150] |  | > 1000 | 
> 1000 | CCOC(=O)CN(Cc1ccccc1)C(=O)c1ccc(Nc2ncc(-c3cn[nH]c3)n3ncnc23)cc1 [Compound 154] |  | > 1000 | 
> 1000 | COc1cc(Nc2ncc(-c3cn[nH]c3)n3ncnc23)ccc1C(=O)NCc1ccccc1 [Compound 122, N-Benzyl-2-methoxy-4-[5-(1H-pyrazol-4-yl)-[1,2,4]triazolo[1,5-a]pyrazin-8-ylamino]-benzamide] |  | > 1000 | 
501 to 1000 | CN1CCN(c2ccc(NC(=O)c3ccc(Nc4ncc(-c5cn[nH]c5)n5ncnc45)cc3)cc2)CC1 [Compound 153] |  | > 1000 | 
> 1000 | O=C(NCc1cc(-c2ccccc2)on1)c1ccc(Nc2ncc(-c3cn[nH]c3)n3ncnc23)cc1 [Compound 192] |  | 101 to 500 | 
> 1000 | c1nc2c(Nc3ccc(N4CCOCC4)cc3)ncc(-c3ccc4cn[nH]c4c3)n2n1 [Compound 93] | > 1000 |  | 
> 1000 | COc1cc(Nc2ncc(-c3csc(C(N)=O)c3)n3ncnc23)ccc1C(=O)NCc1ccccc1 [Compound 132] |  | > 1000 | 
 | CN(C)Cc1cc(Nc2ncc(-c3ccc4c(c3)CNC4=O)n3ncnc23)ccc1N1CCOCC1 [Compound 175] | > 1000 |  | 
 | CCN1CCC[C@H]1CNC(=O)c1ccc(Nc2ncc(-c3cn[nH]c3)n3ncnc23)cc1 [Compound 163] |  | > 1000 | 
 | C[C@@H]1C[C@H]2[C@@H]3CCC4=CC(=O)C=C[C@]4(C)[C@@]3(F)[C@@H](O)C[C@]2(C)[C@@]1(O)C(=O)CO [dexamethasone, reference compound] |  |  | ~1
> 1000 | CC(C)N1CCCN(c2ccc(Nc3ncc(-c4cn[nH]c4)n4ncnc34)cc2)CC1 [Compound 187] |  |  | 
1 to 100 | CC(C)N1CCCN(c2ccc(Nc3ncc(-c4ccc5c(c4)CNC5=O)n4ncnc34)cc2)CC1 [Compound 188] |  |  | 
> 1000 | O=C(Nc1ccc(Nc2ncc(-c3cn[nH]c3)n3ncnc23)cn1)c1ccccc1 [Compound 135] |  |  | 
